From patent US12669496B2, “Method for evaluating and/or screening a control agent for tissue morphology and/or tissue function” (ROHTO PHARMACEUTICAL CO., LTD., priority 2020, dated 2026)

Columns and labels:
MRTFA [1] = experiment: Real-time PCR of MRTFA gene expression in skin equivalent models; format: cell-based, human; settings: 10 μM, 6 to 48 hours; tensional homeostatic skin equivalent model (confirmed only in this model)
COL1A1 = experiment: Real-time PCR of COL1A1 gene expression in skin equivalent models; format: cell-based, human; settings: 6 to 48 hours
type I collagen = experiment: Immunohistochemical staining of type I collagen in skin equivalent; format: cell-based, human
HAS3 = experiment: Real-time PCR of HAS3 gene expression in skin equivalent models; settings: 10 μM
ITGA2 = experiment: Immunohistochemical staining of ITGA2 in skin equivalent models; format: cell-based, human; settings: 10 nM, 6 to 48 hours; tensional homeostatic model; to levels approximately equivalent to tension-released model
MRTFA [2] = experiment: Immunohistochemical staining of MRTFA in skin equivalent models; format: cell-based, human; settings: 10 nM, 6 to 48 hours; tensional homeostatic model; to levels approximately equivalent to tension-released model
αSMA = experiment: Immunohistochemical staining of αSMA in skin equivalent models; format: cell-based, human; settings: 10 nM, 6 to 48 hours; tensional homeostatic model; to levels approximately equivalent to tension-released model
MRTFA [3] = experiment: Image analysis of nuclear import rates of MRTFA; format: cell-based, human; settings: 10 nM, 6 to 48 hours; image analysis of immunohistochemical staining
COL1A2 = experiment: Real-time PCR of COL1A2 gene expression in skin equivalent models; format: cell-based, human; settings: 10 nM, 6 to 48 hours; tensional homeostatic model; to the equivalent level in tension-released skin equivalent
FBN1 = experiment: Real-time PCR of FBN1 gene expression in skin equivalent models; format: cell-based, human; settings: 10 nM, 6 to 48 hours; tensional homeostatic model; to the equivalent level in tension-released skin equivalent
ELN = experiment: Real-time PCR of ELN gene expression in skin equivalent models; format: cell-based, human; settings: 10 nM, 6 to 48 hours; tensional homeostatic model; to the equivalent level in tension-released skin equivalent
MMP1 = experiment: Real-time PCR of MMP1 gene expression in skin equivalent models; format: cell-based, human; settings: 10 nM, 6 to 48 hours; tensional homeostatic model; to the equivalent level in tension-released skin equivalent
[4] = test system: Tensional homeostatic skin equivalent; experiment: Fluorescent staining of actin cytoskeleton and cell membrane (tissue orientation); format: cell-based, human; settings: 10 nM, to level approximately equivalent to tension-released model

Row | Compound | MRTFA gene expression (MRTFA [1]) | COL1A1 gene expression (COL1A1; 10 μM, Tensional homeostatic skin equivalent vs control group (confirmed only in this model)) | expression of type I collagen (collagen fiber formation) (type I collagen; 10 μM, Tensional homeostatic skin model, vs control group) | HAS3 gene expression (HAS3; 6 to 48 hours, each skin equivalent model, compared with all the control groups) | ratio of the HAS3 expression promotion (HAS3; Tensional homeostatic skin equivalent compared with the other models) | gene expression of COL1A1 (COL1A1; 10 nM, tensional homeostatic model, to the equivalent level in tension-released skin equivalent) | expression level of type I collagen (collagen fiber formation) (type I collagen; 10 nM, Tensional homeostatic skin equivalent, to level approximately equivalent to tension-released model) | expression level of ITGA2 (ITGA2) | expression level of MRTFA (MRTFA [2]) | expression level of αSMA (αSMA) | nuclear import rates of MRTFA (MRTFA [3]) | gene expression of COL1A2 (COL1A2) | gene expression of FBN1 (FBN1) | gene expression of ELN (ELN) | gene expression of MMP1 (MMP1) | orientations of the cytoskeletons, cell membranes, and nuclei in the tension direction [4]
1 | CC1=C(/C=C/C(C)=C/C=C/C(C)=C/C(=O)O)C(C)(C)CCC1 [ATRA, all-trans retinoic acid] | significant increase | significant promotion of gene expression | increased | significant promotion of gene expression | highest value |  |  |  |  |  |  |  |  |  |  | 
2 | C[C@@H](N)[C@H]1CC[C@H](C(=O)Nc2ccncc2)CC1 [Y27632] |  |  |  |  |  | significantly inhibited | reduced | reduces the expression levels | reduces the expression levels | reduces the expression levels | significantly reduced | significantly inhibited | significantly inhibited | significantly inhibited | significantly increased | reduced the orientations
